Source: patent US9689042B2, “Use of glycolytic pathways for inhibiting or measuring oncogenic signaling” (The Regents of the University of California, priority 2012, dated 2017)
Entries after “also recorded” stand apart in the source; their conditions may differ.

Columns and labels:
T4-2 cells [1] = conditions: T4-2 cells, 3D lrECM
Protocol: (§1) HMT-3522 cells were cultured on tissue culture plastic (2D) and in 3D lrECM gels with H14 medium, a 1:1 mix of DMEM/F12 (UCSF Cell Culture Facility) supplemented with 250 ng/ml insulin, 10 μg/ml transferrin, 2.6 ng/ml sodium selenite, 0.1 nM β-estradiol, 1.4 μM hydrocortisone and 5 μg/ml prolactin but no serum. S1 cells were additionally supplemented with 10 ng/ml EGF. MDA-MB-231 and HCC70 cells were cultured in DMEM and RPMI1640, respectively, and were supplemented with 10% fetal bovine serum (FBS).
(§2) For 3D lrECM cultures, S1 and T4-2 cells were seeded at 840,000 and 600,000 cells per cm3 respectively in lrECM gel (Cultrex), overlaid with H14 medium. MDA-MB-231 and HCC70 cells were seeded at 625,000 cell per cm3 and overlaid with H14 medium supplemented with 1% FBS. Cells were used for each assay after 10 days, unless otherwise indicated.
Pieces of lrECM gel containing cell colonies were suspended in approximately the same volume of phosphate buffered saline (PBS) and directly spread on glass slides. After brief air-drying, colonies were fixed with 3.7% paraformaldehyde (PFA) in PBS at room temperature (RT) for 10 min, washed with PBS containing 0.1 mM glycine, and permeabilized with 1:1 methanol/acetone at −20° C. for 10 min. After blocking with IF buffer (0.2% Triton X-100, 0.1% BSA [radioimmunoassay grade], 0.05% Tween 20, 7.7 mM NaN3 in PBS) containing 10% goat serum and 1% goat F(ab′)2 anti-mouse immunoglobulin G (IgG; Caltag) at RT for 30 min, colonies were stained with anti-α6 integrin antibody (Chemicon International) at 4° C. overnight. Colonies were washed extensively with IF buffer, and stained with Alexa 568-labeled anti-rat IgG antibody at RT for 2 hr. Colonies were washed with IF buffer again, and nuclei were stained with DAPI at RT for 10 min. Slides were briefly washed with PBS and mounted with 50% glycerol in PBS.
To test whether increased glucose metabolism itself is required for oncogenic signaling events, we utilized 3D lrECM cultures of HMT-3522, a breast cancer progression series which includes non-malignant (S1) and malignant (T4-2) human breast epithelial cells from the same individual (Briand et al., 1987; Petersen et al., 1992; Rizki et al., 2008). Using these cells, we have described the involvement and reciprocity of multiple signaling pathways including EGFR, β1 integrin, PI3K-Akt and MEK-ERK in oncogenic events (Beliveau et al., 2010; Bissell et al., 2005). […] We thus used this “phenotypic reversion” of the cancer cells as an assay to examine how the signaling integration plan of the breast acini could involve glucose metabolism.

S1 cells = test: 3D lrECM culture of non-malignant S1 cells: acinar morphology and growth; assay type: cell-based, human; conditions: 2DG 4 mM, OGM 4 ng/ml
Protocol: as §1, §2
Pieces of lrECM gel containing cell colonies were suspended in approximately the same volume of phosphate buffered saline (PBS) and directly spread on glass slides. After brief air-drying, colonies were fixed with 3.7% paraformaldehyde (PFA) in PBS at room temperature (RT) for 10 min, washed with PBS containing 0.1 mM glycine, and permeabilized with 1:1 methanol/acetone at −20° C. for 10 min. […]

[2] = tested on: EGFR, β1 integrin, Akt, MEK, GLUT3, glycolytic enzymes in T4-2 cells; test: Western blots of signaling intermediates, GLUT3 and metabolic enzymes in 3D lrECM cultures of T4-2 cells; assay type: cell-based, human; conditions: T4-2 cells
Protocol: Cell colonies were separated from lrECM gels by shaking in PBS containing 5 mM EDTA and the proteinase inhibitor cocktail set I (Calbiochem) on ice for 30 min. Cells were lysed in lysis buffer (1% NP-40, 1% deoxycholate, 2% SDS, 150 mM NaCl, 20 mM Tris-HCl [pH 7.4] plus 5 mM EDTA and protease inhibitor cocktail set I and phosphatase inhibitor cocktail set I [Calbiochem]) and sonicated three times for 30 sec each. Proteins were separated by SDS-PAGE, transferred to nitrocellulose membranes, and probed with antibodies against the following proteins: phosphorylated MEK, MEK, phosphorylated Akt, Akt, phosphorylated AMPK, AMPK, p70S6K, phosphorylated p70S6K, CHOP, EPAC1 (Cell Signaling), β1 integrin, EGFR, activated EGFR, HIF-1α, (Chemicon International), PFKP (Abgent), GAPDH, GLUT3 (GeneTex), LDHA, PDHE1α, DLAT, DLD, HIF-3α, Rap1, sAC, EPAC2, OGT, Lamin A/C (Santa Cruz Biotechnology), Aldolase (Polysciences), GFPT (ProteinTech Group), HIF-2α (Abcam), and HA-tag (Covance). After probing with HRP-conjugated secondary antibodies, blots were developed using SuperSignal West Femto chemiluminescence reagent (Pierce Biotechnology). Images were captured using Fluor Chem 8900 imager (Alpha Innotech).

T4-2 cells [3] = test: Mitochondrial activity (MitoTracker oxidation) assay in 3D lrECM; assay type: cell-based, human
Protocol: Cells suspended in 200 μl lrECM were seeded in 12 well glass-bottom plates (14 mm diameter; MatTek Corporation). Gels were overlaid with 500 μl H14 media and cultured for 10 days before each assay unless otherwise described.
For mitochondrial activity, we slightly modified the method described previously (Morici et al., 2007). Briefly, cells were incubated with 2 μM MitoTracker® Orange CM-H2 TMRos (Invitrogen) for 1 hour and fixed with PFA as above. Cells were counterstained with Hoechst 33342 (Invitrogen), which is known also to bind to DNA stoichiometrically, then MitoTracker and Hoechst staining were measured by taking z-section images from top to bottom of the gels using confocal microscopy.
In each assay, one well, containing only lrECM, was made for background measurements. Glucose uptake measured by 2DG uptake, lactate production and MitoTracker staining were normalized using total DNA levels, and presented relative to that of control (either S1 or non-treated T4-2 cells).

EGFR, ITGB1, GLUT3 mRNA = test: Quantitative PCR of EGFR, ITGB1 and GLUT3 mRNA in T4-2 cells; assay type: cell-based, human; conditions: 3D lrECM, normalized to 18S ribosomal RNA
Protocol: First strand cDNA pools of S1, T4-2 and reverted T4-2 cells were obtained from total RNA of each sample by using SuperScript II (Invitrogen). For each sample, reverse transcription was carried out with random hexamer and with oligo dT primer following the manufacturer's instruction, and the two reactions were mixed in a ratio of 9:1. Expression levels of EGFR, ITGB1, GLUT3 and 18S ribosomal RNA (used as a control) were quantified in LightCycler system (Roche) using QuantiTect SYBR Green PCR Kits (QIAGEN) and the reverse transcription mixtures. Expression levels of EGFR, ITGB1, GLUT3 were normalized to that of 18S ribosomal RNA.

[4] = tested on: S1 cells infected with GLUT3-HA-encoding lentivirus; test: 3D lrECM culture of S1 cells overexpressing GLUT3; assay type: cell-based, human; conditions: S1 cells over-expressing GLUT3-HA, 2DG 4 mM
Source text: HIV 5′ LTR sequence in pTRIPZ vector (Open Biosystems) was removed by FspI-BbvCI digestion to replace with sequence containing chimeric CMV promoter-HIV 5′ LTR. CMV promoter was amplified by PCR from pcDNA3 (Invitrogen), fused to sequence containing partial HIV 5′ LTR sequence. The resulting intermediate vector, pTRIPZ-OY (optimal yield) was digested with BbvCI and NotI, to remove sequence containing TRE-minCMV promoter, turboRFP, UbqC promoter and rtTA3 (described in the manual provided by the manufacturer). The sequences containing EF1α/HTLV hybrid promoter and multiple cloning sites were removed from pCDH-EF1-MCS-T2A-Puro vector (System Bioscience) by digestion with the same restriction enzymes, and ligated into the digested pTRIPZ-OY vector, resulting in pLETIP vector. GLUT3 cDNA fused to C-terminal HA tag was amplified from total cDNA of T4-2 cells by PCR. The primers used were as follows: 5′-[…]-3′ (SEQ ID NO: 9) and 5′-[…] TTAGCA-3′ (SEQ ID NO: 10). The amplified cDNA was digested with BamHI and XmaI, and ligated into the same sites of pBluescriptII SK(−) vector for validating the sequence. GLUT3-HA cDNA was then digested with BamHI and SmaI, and ligated into pLETIP vector digested with NotI, blunted with T4 polymerase and further digested with BamHI, resulting in pLETIP GLUT3-HA vector. […]

[5] = same inhibitor concentrations as E1

Structure (SMILES): O=CC[C@@H](O)[C@H](O)[C@H](O)CO [2DG, 2-deoxy-D-glucose]
- phenotypic reversion of the malignant phenotype (T4-2 cells [1]; 2DG 4 mM, IA 20 μM, OX 50 mM, Azs 20 μM, DON 20 μM, BADGP 5 mM, TM 10 ng/ml, OGM 4 ng/ml, Rapa 0.01-1.0 μM): induced phenotypic reversion; also recorded: do induce phenotypic reversion
- basal polarity / organized acinar structures (T4-2 cells [1]; [5]): re-establishment of basally polarized acini
- growth / proliferation (cell numbers at the colony mid-section, EdU incorporation) (T4-2 cells [1]; [5]): growth arrest
- acinar morphology, basal polarity and growth rate of non-malignant cells (S1 cells): altered neither the acinar morphology nor the growth rate
- expression of ER stress marker CHOP ([2]; 3D cultures, 2DG 4 mM): unchanged
- phosphorylation of AMPK or S6K ([2]; 3D cultures, 2DG 4 mM): did not affect
- expression of GLUT3 and the glycolytic enzymes ([2]; 3D lrECM, Western blot): dramatic down-regulation
- expression of PDC components ([2]; 3D lrECM, Western blot): elevated
- levels and/or activities of EGFR, β1 integrin, Akt and MEK (oncogenic signaling) ([2]; 3D lrECM, Western blot): decrease
- mitochondrial activity (oxidation) (T4-2 cells [3]): essentially unaffected
- mRNA expression of EGFR, β1 integrin and GLUT3 (EGFR, ITGB1, GLUT3 mRNA): effectively suppressed
- reversal of the disorganized phenotype caused by GLUT3 over-expression [4]: could be reversed
